From the NIST ThermoML archive (doi:10.1016/j.jct.2018.07.020)
Values joined by “and” are separate entries in the source; they are usually repeats but may differ in a detail not shown here. Equal values may be shown once.

Assays:
[1] = for vapor or sublimation pressure: Transpiration method; for Normal melting temperature: DTA
[2] = Molar enthalpy of transition or fusion; settings: Crystal; DSC
[3] = Boiling temperature at pressure P; settings: Liquid, Distillation

c1ccc2[nH]ncc2c1 [1,2-diazaindene]
[1], Crystal
Settings	vapor or sublimation pressure
323.3 K	0.00069 kPa
326.3 K	0.00098 kPa
330.3 K	0.00152 kPa
331.3 K	0.00161 kPa
336.3 K	0.00272 kPa
338.3 K	0.00329 kPa
341.3 K	0.00443 kPa
343.3 K	0.00515 kPa and 0.00524 kPa
345.2 K	0.00661 kPa
346.3 K	0.00723 kPa
348.3 K	0.00826 kPa
350.3 K	0.01023 kPa
353.2 K	0.01343 kPa
356.2 K	0.01763 kPa
358.2 K	0.0211 kPa
361.2 K	0.02725 kPa

Cc1cc(C)n(C)n1 [1,3,5-trimethylpyrazole]
Settings	Molar enthalpy of transition or fusion [kcal/mol]
[2]	4.21

[1]
Settings	vapor or sublimation pressure
282 K, Crystal	0.0479 kPa
284 K, Crystal	0.0583 kPa
287 K, Crystal	0.0816 kPa
288.7 K, Crystal	0.0998 kPa
291.7 K, Crystal	0.1348 kPa
293.8 K, Crystal	0.1707 kPa
296.7 K, Crystal	0.2266 kPa
298.7 K, Crystal	0.2751 kPa and 0.2814 kPa
301.7 K, Crystal	0.376 kPa
301.9 K, Crystal	0.3776 kPa
303 K, Crystal	0.4153 kPa
303.9 K, Crystal	0.4496 kPa
306.8 K, Crystal	0.5927 kPa
315.6 K, Liquid	0.934 kPa
320.8 K, Liquid	1.297 kPa
325.7 K, Liquid	1.793 kPa
326.4 K, Liquid	1.878 kPa
330.5 K, Liquid	2.376 kPa
331.4 K, Liquid	2.585 kPa
334.1 K, Liquid	2.995 kPa
336 K, Liquid	3.202 kPa
336.4 K, Liquid	3.436 kPa
338.9 K, Liquid	3.803 kPa
341.4 K, Liquid	4.545 kPa
343.4 K, Liquid	4.993 kPa
346.4 K, Liquid	5.866 kPa

Settings	Normal melting temperature [°C]
[1], Crystal	39.4

c1ccc(Cn2cccn2)cc1 [1-benzylpyrazole]
Settings	Boiling temperature at pressure P [°C]
[3], 0.6 kPa	109

[1], Liquid
Settings	vapor or sublimation pressure
298.2 K	0.00147 kPa
310.2 K	0.0043 kPa
314.2 K	0.00615 kPa
318.2 K	0.00882 kPa
322.2 K	0.0119 kPa
326.2 K	0.0166 kPa and 0.0168 kPa
330.2 K	0.0225 kPa
334.2 K	0.0311 kPa
338.2 K	0.0421 kPa
342.2 K	0.0559 kPa
346.2 K	0.0713 kPa
350.2 K	0.0969 kPa
354.2 K	0.1228 kPa
358.2 K	0.159 kPa

CCn1cccn1 [1-ethylpyrazole]
Settings	Boiling temperature at pressure P [°C]
[3], 7.2 kPa	60

[1], Liquid
Settings	vapor or sublimation pressure
275.2 K	0.1828 kPa and 0.1776 kPa
279.2 K	0.2485 kPa
280.2 K	0.2616 kPa
283.2 K	0.3347 kPa
285.2 K	0.3759 kPa
287.2 K	0.4482 kPa
290.2 K	0.5448 kPa
291.2 K	0.5877 kPa
294.2 K	0.7128 kPa
295.2 K	0.7543 kPa
298.2 K	0.9478 kPa
300.2 K	1.073 kPa
302.2 K	1.237 kPa
303.2 K	1.3 kPa
305.2 K	1.539 kPa
306.2 K	1.63 kPa
311.2 K	2.194 kPa

Cn1cccn1 [1-methyl-1H-pyrazole]
[1], Liquid
Settings	vapor or sublimation pressure [kPa]
273.4 K	0.3007
276.4 K	0.3722
277.2 K	0.3818
278.7 K	0.4304
281.6 K	0.5225
281.8 K	0.5148
283.3 K	0.5843
284.6 K	0.6386
286.5 K	0.7077
287.8 K	0.7821
288.3 K	0.8074
290.5 K	0.9287
291.4 K	0.9834
292.5 K	1.077
294.4 K	1.195
296.5 K	1.365
297.4 K	1.456
298.8 K	1.576
302.4 K	1.989
304.7 K	2.313
306.6 K	2.528
308.2 K	2.753

c1ccc(-n2cccn2)cc1 [1-phenylpyrazole]
[1], Liquid
Settings	vapor or sublimation pressure [kPa]
294.2 K	0.00258
295.2 K	0.00284
297.2 K	0.00324
303.2 K	0.00556
309.1 K	0.00913
315 K	0.01461
320.9 K	0.02221
327 K	0.03352
332.8 K	0.05146
338.9 K	0.07723
344.9 K	0.1082
350.8 K	0.1589
354.8 K	0.2072
360.8 K	0.2918

c1cn[nH]c1 [1H-pyrazole]
[1], Crystal
Settings	vapor or sublimation pressure [kPa]
308.4 K	0.0499
310.8 K	0.0628
313.4 K	0.08
315.8 K	0.1
318.2 K	0.1258
323.3 K	0.189
328.3 K	0.287
330.9 K	0.3495
333.3 K	0.4255
335.8 K	0.5187
338.3 K	0.6278

Cc1cc(C)[nH]n1 [3,5-dimethylpyrazole]
Settings	Molar enthalpy of transition or fusion [kcal/mol]
[2]	3.85

[1], Crystal
Settings	vapor or sublimation pressure [kPa]
323.3 K	0.0136
325.9 K	0.0179
326.3 K	0.019
328.3 K	0.0224
330.3 K	0.028
333.3 K	0.0361
333.5 K	0.0368
336.3 K	0.0473
338.2 K	0.0538
343.3 K	0.0846
345.7 K	0.1033
348.3 K	0.1257
350.7 K	0.1591
350.8 K	0.1585
353.2 K	0.1955
354.3 K	0.2107
356.4 K	0.2524

Settings	Normal melting temperature [°C]
[1], Crystal	109.1

Cc1cc[nH]n1 [3-methylpyrazole]
[1], Liquid
Settings	vapor or sublimation pressure [kPa]
306.3 K	0.0252
308.7 K	0.0308
311.2 K	0.0369
313.8 K	0.0443
316.3 K	0.0568
318.2 K	0.063
321.2 K	0.0821
323.8 K	0.0978
326.2 K	0.1165
328.8 K	0.142
333.2 K	0.1924

Cc1cn[nH]c1 [4-methylpyrazole]
[1], Liquid
Settings	vapor or sublimation pressure [kPa]
296 K	0.0098
301 K	0.0149
305.9 K	0.0226
310.8 K	0.0339
315.8 K	0.0494
320.9 K	0.0719
325.7 K	0.099
330.6 K	0.1457
335.6 K	0.2071
340.6 K	0.2879
